Source: ChEMBL document CHEMBL1821572, “Discovery of a novel series of selective HCN1 blockers” (Bioorg Med Chem Lett, 2011)
pIC50: −log10 of the molar value.

Experiments:
[1] = organism: Homo sapiens; assay: Selectivity for human HCN1 over human HCN4
[2] = molecular target: T1, Potassium/sodium hyperpolarization-activated cyclic nucleotide-gated channel 4 (Homo sapiens, UniProt Q9Y3Q4); assay: Inhibition of human HCN4 heterologously expressed in HEK-293 cells after 30 mins by VIPR assay; assay type: cell-based, HEK293
T1 sequence (Q9Y3Q4 whole entry): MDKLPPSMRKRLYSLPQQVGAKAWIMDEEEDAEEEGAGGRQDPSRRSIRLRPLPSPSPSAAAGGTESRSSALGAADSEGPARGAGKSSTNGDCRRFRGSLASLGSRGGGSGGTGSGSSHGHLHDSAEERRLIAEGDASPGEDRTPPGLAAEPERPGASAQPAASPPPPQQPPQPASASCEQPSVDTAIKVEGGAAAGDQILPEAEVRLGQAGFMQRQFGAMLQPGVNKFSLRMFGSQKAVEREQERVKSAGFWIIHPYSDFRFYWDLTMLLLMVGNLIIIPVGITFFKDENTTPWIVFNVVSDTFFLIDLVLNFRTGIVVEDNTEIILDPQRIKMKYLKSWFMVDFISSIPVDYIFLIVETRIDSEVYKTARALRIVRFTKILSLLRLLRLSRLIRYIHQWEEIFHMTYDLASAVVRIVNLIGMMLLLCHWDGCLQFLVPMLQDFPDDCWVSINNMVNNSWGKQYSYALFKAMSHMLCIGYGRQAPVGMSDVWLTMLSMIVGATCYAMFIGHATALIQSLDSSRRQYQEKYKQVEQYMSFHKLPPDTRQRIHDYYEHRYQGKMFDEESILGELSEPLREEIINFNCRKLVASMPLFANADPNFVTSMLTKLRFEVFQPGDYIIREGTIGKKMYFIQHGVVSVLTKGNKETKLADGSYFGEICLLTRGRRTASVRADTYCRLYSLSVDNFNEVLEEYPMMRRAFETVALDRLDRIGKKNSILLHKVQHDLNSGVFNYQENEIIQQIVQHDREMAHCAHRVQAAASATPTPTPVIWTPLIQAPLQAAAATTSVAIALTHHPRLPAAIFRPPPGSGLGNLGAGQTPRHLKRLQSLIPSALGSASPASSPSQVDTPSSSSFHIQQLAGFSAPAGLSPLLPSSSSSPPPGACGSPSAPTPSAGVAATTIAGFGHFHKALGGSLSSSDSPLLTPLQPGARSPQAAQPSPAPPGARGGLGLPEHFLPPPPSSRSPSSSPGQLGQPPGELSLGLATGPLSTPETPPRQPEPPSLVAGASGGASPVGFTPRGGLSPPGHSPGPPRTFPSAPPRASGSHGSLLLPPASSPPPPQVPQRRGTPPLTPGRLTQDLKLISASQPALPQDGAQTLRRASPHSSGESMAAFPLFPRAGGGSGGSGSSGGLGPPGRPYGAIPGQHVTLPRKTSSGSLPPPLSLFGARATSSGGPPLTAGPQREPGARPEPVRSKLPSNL

[3] = Half life in human liver microsomes; assay type: ADME, Microsome
[4] = molecular target: T2, Potassium/sodium hyperpolarization-activated cyclic nucleotide-gated channel 2 (Homo sapiens, UniProt Q9UL51); assay: Inhibition of human HCN2 heterologously expressed in HEK-293 cells after 30 mins by VIPR assay; assay type: cell-based, HEK293
T2 sequence (Q9UL51 whole entry): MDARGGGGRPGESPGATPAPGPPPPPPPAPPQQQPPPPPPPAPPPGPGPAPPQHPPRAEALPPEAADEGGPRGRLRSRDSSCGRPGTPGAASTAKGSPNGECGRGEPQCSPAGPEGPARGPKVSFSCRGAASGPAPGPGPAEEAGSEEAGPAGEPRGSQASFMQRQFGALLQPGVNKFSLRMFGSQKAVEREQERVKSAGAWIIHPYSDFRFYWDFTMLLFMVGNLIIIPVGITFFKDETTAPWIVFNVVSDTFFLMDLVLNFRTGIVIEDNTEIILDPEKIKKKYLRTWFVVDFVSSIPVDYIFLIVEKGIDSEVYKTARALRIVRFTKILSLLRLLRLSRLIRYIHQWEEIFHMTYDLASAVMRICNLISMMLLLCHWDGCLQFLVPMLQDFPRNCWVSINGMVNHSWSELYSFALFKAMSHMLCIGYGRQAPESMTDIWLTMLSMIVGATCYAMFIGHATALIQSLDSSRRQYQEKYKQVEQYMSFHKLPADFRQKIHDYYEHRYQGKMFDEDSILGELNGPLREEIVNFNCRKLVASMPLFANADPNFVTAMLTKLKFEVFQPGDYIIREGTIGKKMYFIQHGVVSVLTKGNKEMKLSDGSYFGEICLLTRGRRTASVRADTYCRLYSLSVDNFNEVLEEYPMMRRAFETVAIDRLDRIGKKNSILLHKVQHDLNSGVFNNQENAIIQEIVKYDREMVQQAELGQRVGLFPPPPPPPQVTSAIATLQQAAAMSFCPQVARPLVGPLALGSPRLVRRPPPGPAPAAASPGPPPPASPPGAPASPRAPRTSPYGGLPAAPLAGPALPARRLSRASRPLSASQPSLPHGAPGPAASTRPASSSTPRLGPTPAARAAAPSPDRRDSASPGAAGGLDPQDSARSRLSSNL

[5] = molecular target: T3, Potassium/sodium hyperpolarization-activated cyclic nucleotide-gated channel 3 (Homo sapiens, UniProt Q9P1Z3); assay: Inhibition of human HCN3 heterologously expressed in HEK-293 cells after 30 mins by VIPR assay; assay type: cell-based, HEK293
T3 sequence (Q9P1Z3 whole entry): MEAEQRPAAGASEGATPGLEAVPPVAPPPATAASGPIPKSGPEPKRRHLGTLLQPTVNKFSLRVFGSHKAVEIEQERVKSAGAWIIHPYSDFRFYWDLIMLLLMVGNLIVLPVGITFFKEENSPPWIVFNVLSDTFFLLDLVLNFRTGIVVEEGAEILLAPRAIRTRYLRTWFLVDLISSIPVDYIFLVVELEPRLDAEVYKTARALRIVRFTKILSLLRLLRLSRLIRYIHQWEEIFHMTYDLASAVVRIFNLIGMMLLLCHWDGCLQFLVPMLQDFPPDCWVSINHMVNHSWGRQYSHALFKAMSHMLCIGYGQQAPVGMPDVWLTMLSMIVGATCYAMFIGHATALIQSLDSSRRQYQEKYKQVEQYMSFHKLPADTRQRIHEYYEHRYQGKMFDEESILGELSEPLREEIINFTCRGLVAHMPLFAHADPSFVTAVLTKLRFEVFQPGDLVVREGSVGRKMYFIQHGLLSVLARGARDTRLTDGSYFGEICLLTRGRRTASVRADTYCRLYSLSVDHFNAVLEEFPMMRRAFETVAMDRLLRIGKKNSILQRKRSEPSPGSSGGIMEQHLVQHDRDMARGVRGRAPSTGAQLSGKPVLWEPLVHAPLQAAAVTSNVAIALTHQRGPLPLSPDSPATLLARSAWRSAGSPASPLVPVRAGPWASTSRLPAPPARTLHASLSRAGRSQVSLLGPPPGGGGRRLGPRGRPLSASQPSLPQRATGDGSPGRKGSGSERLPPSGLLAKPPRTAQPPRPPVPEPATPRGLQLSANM

Q: What does the source list for `CCOc1ccccc1C(=O)NCC1(N2CCNCC2)CCCCC1`?
A: Selectivity ratio [1]: 10; pIC50 [2]: 5.40; half-life [3]: 3.92 h; pIC50 [4]: 5.30; pIC50 [5]: 5.50
